Where “and” joins values, the source holds several entries; their conditions need not be identical. Identical values can stand only once. One block for each molecule: values may come before it.
System: NCI-H196 complex spheroid growth, percent test/control
Experiment: Anticancer human tumor NCI-H196 cell line growth inhibition [AhR];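 also: seven days of drug exposure starting three days after plating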;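 as to viability, T/C: 100% = DMSO vehicle control wells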
Conditions: for viability, T/C: stronger effect = lower value
Outline: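 Complex tumor spheroids co-cultured with HUVEC and human MSC stroma; AhR antagonists tested in combination with standard-of-care and investigational agents. Top concentration at or near clinical Cmax (else 10 microM), half-log dilutions; growth expressed as percent test/control.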

[1] = curve of first compound, second compound 0.1 µM
[2] = curve of first compound, second compound 0.316 µM
[3] = curve of first compound, second compound 1 µM
[4] = curve of first compound, second compound 3.16 µM
[5] = curve of first compound, second compound 10 µM
[6] = second compound 0.1 µM, first compound 0.0316 µM
[7] = second compound 0.1 µM, first compound 0.1 µM
[8] = second compound 0.1 µM, first compound 0.316 µM
[9] = second compound 0.1 µM, first compound 1 µM
[10] = second compound 0.1 µM, first compound 3.16 µM
[11] = second compound 0.1 µM, first compound 10 µM
[12] = second compound 0.316 µM, first compound 0.0316 µM
[13] = second compound 0.316 µM, first compound 0.1 µM
[14] = second compound 0.316 µM, first compound 0.316 µM
[15] = second compound 0.316 µM, first compound 1 µM
[16] = second compound 0.316 µM, first compound 3.16 µM
[17] = second compound 0.316 µM, first compound 10 µM
[18] = second compound 1 µM, first compound 0.0316 µM
[19] = second compound 1 µM, first compound 0.1 µM
[20] = second compound 1 µM, first compound 0.316 µM
[21] = second compound 1 µM, first compound 1 µM
[22] = second compound 1 µM, first compound 3.16 µM
[23] = second compound 1 µM, first compound 10 µM
[24] = second compound 3.16 µM, first compound 0.0316 µM
[25] = second compound 3.16 µM, first compound 0.1 µM
[26] = second compound 3.16 µM, first compound 0.316 µM
[27] = second compound 3.16 µM, first compound 1 µM
[28] = second compound 3.16 µM, first compound 3.16 µM
[29] = second compound 3.16 µM, first compound 10 µM
[30] = second compound 10 µM, first compound 0.0316 µM
[31] = second compound 10 µM, first compound 0.1 µM
[32] = second compound 10 µM, first compound 0.316 µM
[33] = second compound 10 µM, first compound 1 µM
[34] = second compound 10 µM, first compound 3.16 µM
[35] = second compound 10 µM, first compound 10 µM

Structure (SMILES): Nc1ccn(C2OC(CO)C(O)C2(F)F)c(=O)n1 (configuration not stated) + CC(CO)NC(=O)c1cc(-c2ccc(Cl)cc2)nn(-c2cnn(C)c2)c1=O
- IC50 [1]: > 10 µM
- IC50 [2]: > 10 µM
- IC50 [3]: > 10 µM
- IC50 [4]: > 10 µM
- IC50 [5]: > 10 µM
- viability, T/C [6]: 94%
- viability, T/C [7]: 93.3%
- viability, T/C [8]: 67.5%
- viability, T/C [9]: 60.2%
- viability, T/C [10]: 65.2%
- viability, T/C [11]: 63.1%
- viability, T/C [12]: 101%
- viability, T/C [13]: 98%
- viability, T/C [14]: 67.9%
- viability, T/C [15]: 65.1%
- viability, T/C [16]: 62%
- viability, T/C [17]: 63.7%
- viability, T/C [18]: 92.9%
- viability, T/C [19]: 86.6%
- viability, T/C [20]: 75.1%
- viability, T/C [21]: 60.7%
- viability, T/C [22]: 61.1%
- viability, T/C [23]: 69.8%
- viability, T/C [24]: 98.3%
- viability, T/C [25]: 96.4%
- viability, T/C [26]: 69.9%
- viability, T/C [27]: 61.3%
- viability, T/C [28]: 59.7%
- viability, T/C [29]: 70.3%
- viability, T/C [30]: 105%
- viability, T/C [31]: 101%
- viability, T/C [32]: 78%
- viability, T/C [33]: 73.1%
- viability, T/C [34]: 66.8%
- viability, T/C [35]: 73.2%

Structure (SMILES): O=C(c1cc(Cc2n[nH]c(=O)c3ccccc23)ccc1F)N1CCN(C(=O)C2CC2)CC1 + Cc1cncc(-c2nc(NCCc3c[nH]c4ccccc34)c3ncn(C(C)C)c3n2)c1
- IC50 [1]: > 10 µM
- IC50 [2]: > 10 µM
- IC50 [3]: > 10 µM
- IC50 [4]: > 10 µM
- IC50 [5]: > 10 µM
- viability, T/C [6]: 103%
- viability, T/C [7]: 102%
- viability, T/C [8]: 96.1%
- viability, T/C [9]: 96%
- viability, T/C [10]: 98.8%
- viability, T/C [11]: 87.4%
- viability, T/C [12]: 101%
- viability, T/C [13]: 101%
- viability, T/C [14]: 103%
- viability, T/C [15]: 94%
- viability, T/C [16]: 107%
- viability, T/C [17]: 91.2%
- viability, T/C [18]: 105%
- viability, T/C [19]: 90.5%
- viability, T/C [20]: 105%
- viability, T/C [21]: 93.4%
- viability, T/C [22]: 101%
- viability, T/C [23]: 97.7%
- viability, T/C [24]: 113%
- viability, T/C [25]: 106%
- viability, T/C [26]: 98.1%
- viability, T/C [27]: 99.7%
- viability, T/C [28]: 103%
- viability, T/C [29]: 99.6%
- viability, T/C [30]: 81.9%
- viability, T/C [31]: 91.7%
- viability, T/C [32]: 87.4%
- viability, T/C [33]: 88.7%
- viability, T/C [34]: 86.9%
- viability, T/C [35]: 93.8%

Structure (SMILES): Cn1ncnc1C1c2n[nH]c(=O)c3cc(F)cc(c23)NC1c1ccc(F)cc1 (configuration not stated) + Cc1cncc(-c2nc(NCCc3c[nH]c4ccccc34)c3ncn(C(C)C)c3n2)c1
- IC50 [1]: > 0.1 µM
- IC50 [2]: > 0.1 µM
- IC50 [3]: > 0.1 µM
- IC50 [4]: > 0.1 µM
- IC50 [5]: > 0.1 µM
- viability, T/C (second compound 0.1 µM, first compound 0.000316 µM): 110%
- viability, T/C (second compound 0.1 µM, first compound 0.001 µM): 101%
- viability, T/C (second compound 0.1 µM, first compound 0.00316 µM): 114%
- viability, T/C (second compound 0.1 µM, first compound 0.01 µM): 104%
- viability, T/C [6]: 99.3%
- viability, T/C [7]: 96%
- viability, T/C (second compound 0.316 µM, first compound 0.000316 µM): 112%
- viability, T/C (second compound 0.316 µM, first compound 0.001 µM): 98.6%
- viability, T/C (second compound 0.316 µM, first compound 0.00316 µM): 110%
- viability, T/C (second compound 0.316 µM, first compound 0.01 µM): 107%
- viability, T/C [12]: 110%
- viability, T/C [13]: 97.8%
- viability, T/C (second compound 1 µM, first compound 0.000316 µM): 103%
- viability, T/C (second compound 1 µM, first compound 0.001 µM): 102%
- viability, T/C (second compound 1 µM, first compound 0.00316 µM): 109%
- viability, T/C (second compound 1 µM, first compound 0.01 µM): 111%
- viability, T/C [18]: 109%
- viability, T/C [19]: 104%
- viability, T/C (second compound 3.16 µM, first compound 0.000316 µM): 111%
- viability, T/C (second compound 3.16 µM, first compound 0.001 µM): 113%
- viability, T/C (second compound 3.16 µM, first compound 0.00316 µM): 126%
- viability, T/C (second compound 3.16 µM, first compound 0.01 µM): 96.1%
- viability, T/C [24]: 108%
- viability, T/C [25]: 103%
- viability, T/C (second compound 10 µM, first compound 0.000316 µM): 94.5%
- viability, T/C (second compound 10 µM, first compound 0.001 µM): 97.8%
- viability, T/C (second compound 10 µM, first compound 0.00316 µM): 91.7%
- viability, T/C (second compound 10 µM, first compound 0.01 µM): 112%
- viability, T/C [30]: 96.6%
- viability, T/C [31]: 104%

The next lines start with results.

- IC50 [1]: > 3 µM
- IC50 [2]: > 3 µM
- IC50 [3]: > 3 µM
- IC50 [4]: > 3 µM
- IC50 [5]: > 3 µM
Structure (SMILES): CCN(c1cc(-c2ccc(CN3CCOCC3)cc2)cc(C(=O)NCc2c(C)cc(C)[nH]c2=O)c1C)C1CCOCC1 + Cc1ccccc1N=Nc1ccc(NC(=O)c2ccnn2C)c(C)c1
- viability, T/C (second compound 0.1 µM, first compound 0.00949 µM): 95%
- viability, T/C (second compound 0.1 µM, first compound 0.03 µM): 104%
- viability, T/C (second compound 0.1 µM, first compound 0.0949 µM): 103%
- viability, T/C (second compound 0.1 µM, first compound 0.3 µM): 104%
- viability, T/C (second compound 0.1 µM, first compound 0.949 µM): 90.2%
- viability, T/C (second compound 0.1 µM, first compound 3 µM): 89.6%
- viability, T/C (second compound 0.316 µM, first compound 0.00949 µM): 104%
- viability, T/C (second compound 0.316 µM, first compound 0.03 µM): 99.2%
- viability, T/C (second compound 0.316 µM, first compound 0.0949 µM): 102%
- viability, T/C (second compound 0.316 µM, first compound 0.3 µM): 97.3%
- viability, T/C (second compound 0.316 µM, first compound 0.949 µM): 94.7%
- viability, T/C (second compound 0.316 µM, first compound 3 µM): 96.3%
- viability, T/C (second compound 1 µM, first compound 0.00949 µM): 98.6%
- viability, T/C (second compound 1 µM, first compound 0.03 µM): 98.1%
- viability, T/C (second compound 1 µM, first compound 0.0949 µM): 111%
- viability, T/C (second compound 1 µM, first compound 0.3 µM): 103%
- viability, T/C (second compound 1 µM, first compound 0.949 µM): 101%
- viability, T/C (second compound 1 µM, first compound 3 µM): 107%
- viability, T/C (second compound 3.16 µM, first compound 0.00949 µM): 93%
- viability, T/C (second compound 3.16 µM, first compound 0.03 µM): 103%
- viability, T/C (second compound 3.16 µM, first compound 0.0949 µM): 105%
- viability, T/C (second compound 3.16 µM, first compound 0.3 µM): 98.1%
- viability, T/C (second compound 3.16 µM, first compound 0.949 µM): 93.2%
- viability, T/C (second compound 3.16 µM, first compound 3 µM): 96.3%
- viability, T/C (second compound 10 µM, first compound 0.00949 µM): 89.9%
- viability, T/C (second compound 10 µM, first compound 0.03 µM): 97.8%
- viability, T/C (second compound 10 µM, first compound 0.0949 µM): 92.9%
- viability, T/C (second compound 10 µM, first compound 0.3 µM): 89.7%
- viability, T/C (second compound 10 µM, first compound 0.949 µM): 90.1%
- viability, T/C (second compound 10 µM, first compound 3 µM): 102%

- IC50 (curve of compound): > 0.1 µM
Structure (SMILES): CC[C@@]1(O)C(=O)OCc2c1cc1n(c2=O)Cc2cc3c(CN(C)C)c(O)ccc3nc2-1
- viability, T/C (compound 0.000316 µM): 105% and 99.9% and 103%
- viability, T/C (compound 0.001 µM): 110% and 104% and 107%
- viability, T/C (compound 0.00316 µM): 89.1% and 98% and 101%
- viability, T/C (compound 0.01 µM): 101% and 94% and 103%
- viability, T/C (compound 0.0316 µM): 116% and 105% and 106%
- viability, T/C (compound 0.1 µM): 108% and 101% and 104%

— PubChem BioAssay AID1919016 (Molecular Pharmacology Branch, DTP, NCI, 2023)
